The source of these data is ChEMBL document CHEMBL1926534, “Efficient synthesis of a novel m-phenylene derivative as a selective EP4 agonist inducing follicular growth and maturation in the ovary” (Bioorg Med Chem Lett, 2011).

The target of assay [1] is Prostaglandin E2 receptor EP4 subtype (Oryctolagus cuniculus, UniProt Q28691). Description: Agonist activity at rabbit EP4 receptor assessed as relaxation of Kcl-induced tissue contraction by isometric transducer method. It is filed as functional.
Chain of Prostaglandin E2 receptor EP4 subtype (Q28691 whole entry): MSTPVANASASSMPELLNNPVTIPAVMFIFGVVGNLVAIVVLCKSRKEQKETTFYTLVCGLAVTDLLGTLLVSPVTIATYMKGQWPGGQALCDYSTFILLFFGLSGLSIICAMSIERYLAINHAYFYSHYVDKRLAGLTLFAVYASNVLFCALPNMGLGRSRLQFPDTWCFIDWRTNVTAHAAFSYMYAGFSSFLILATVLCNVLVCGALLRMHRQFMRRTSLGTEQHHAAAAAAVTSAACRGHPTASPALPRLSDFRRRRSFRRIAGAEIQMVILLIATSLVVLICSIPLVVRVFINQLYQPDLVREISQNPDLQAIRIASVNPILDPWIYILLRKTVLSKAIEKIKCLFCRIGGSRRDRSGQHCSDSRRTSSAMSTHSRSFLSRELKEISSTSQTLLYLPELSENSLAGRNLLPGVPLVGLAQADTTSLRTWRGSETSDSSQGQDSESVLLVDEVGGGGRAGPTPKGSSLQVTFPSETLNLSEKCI
Assay [2] is described as follows: Agonist activity at EP3 receptor in guinea pig uterus assessed as concentration required to reach uterine motility index number 2000. It is filed as functional, Cavia porcellus.
Assay [3] in a line: Agonist activity at Prostaglandin E2 receptor EP1/EP2 in guinea pig ileum. The assay is classed as functional, tissue-based. To be noted: Cavia porcellus.

Molecules are shown by their SMILES.

In the case of `O=C(O)CCc1cccc2c1O[C@H]1C[C@@H](O)[C@H](/C=C/[C@@H](O)CC3CCCCC3)[C@@H]21`, the EC50 in assay [1] came to 5.7 nM; in assay [3] it was 150 nM. In addition, the EC in assay [2] came to 540 nM.

For `O[C@H](/C=C/[C@@H]1[C@H]2c3cccc(CCc4nnn[nH]4)c3O[C@H]2C[C@H]1O)CC1CCCCC1`, the EC50 was determined as 2.6 nM in assay [1] and 3400 nM in assay [3]. Further, in assay [2], the EC is given as 2800 nM.

Broadly, the EC50 is the midpoint of the concentration-response curve.
